Where two headings read alike, the source gives them in different places.
Assays:
CO = test: Ex vivo eicosanoid synthesis in dog whole blood, CO (prostaglandin F2α or TxB2) (Procedure IV); conditions: Canis lupus familiaris, oral, read-out: PROC. IV % INHIB/HOURS CO; for inhibition at 5 mg/kg: 5 MPK
Description: (§1) Ex Vivo eicosanoid synthesis in dog whole blood. Adult beagle or mongrel dogs (10-15 kg) of either sex were fasted overnight prior to the initiation of each experiment. The forelimb was clipped and swabbed with an alcohol prep (70% isopropanol). Blood was drawn by venipuncture into syringes containing lithium heparin (Starstead, Newton NC) immediately prior to administration of compound or vehicle and then at various intervals following dosing. The test compound was administered orally as a suspension in 0.5% methocel. At various times after dosing, blood samples were drawn and placed on an electric rocker platform to assure complete and continuous mixing. White blood cell (wbc) counts were performed using a Sysmex hematology analyzer. This was done in an effort to normalize the number of leukocytes to be stimulated with calcium ionophore. A 1.0 mL aliquot of whole blood was challenged with 50 μL of a 2.6×10^-5 M solution of calcium ionophore A23187 (Calbiochem, La Jolla, CA) prepared in DMSO and diluted in HBSS. After a 15 minute incubation at 37° C., the reaction was stopped by placing the samples in an ice bath (4° C.) for 5 minutes and then centrifuged at 11,000×g for 5 minutes to separate the plasma fraction from blood cells. The plasma fraction was removed, diluted in an appropriate buffer, and analyzed for the presence of LTB4 and prostaglandin F2α or TxB2 by standard RIA techniques. […]

5-LO = test: Ex vivo eicosanoid synthesis in dog whole blood, 5-LO (LTB4) (Procedure IV); conditions: Canis lupus familiaris, oral, read-out: PROC. IV % INHIB/HOURS 5-LO; for inhibition at 5 mg/kg: 5 MPK, 6 hours
Description: as §1

SMILES	inhibition at 1 mg/kg (CO; 1 MPK, 2 hours)	inhibition at 1 mg/kg (5-LO; 1 MPK, 2 hours)	inhibition at 5 mg/kg (CO; 24 hours)	inhibition at 5 mg/kg (5-LO)	inhibition at 5 mg/kg (CO; 6 hours)
COc1ccc(-n2nc(CSC(=S)N(O)C(C)C)cc2-c2ccc(Cl)cc2)cc1 [1-B]	77%	36%	–	–	–
COc1ccc(-n2nc(CSC(=S)N(O)C(C)C)c(Cl)c2-c2ccc(Cl)cc2)cc1 [1-D]	–	–	32%	2%	–
COc1ccc(-n2nc(CSC(=S)N(O)C(C)C)c(Br)c2-c2ccc(Cl)cc2)cc1 [1-E]	–	–	–	41%	31%
